US20250144187A1, “COMBINATION OF HYDROLASES AND ANTI-MICROORGANISM DRUGS AND USES THEREOF” (CENTRE FOR EYE AND VISION RESEARCH LIMITED, priority 2023, published 2025)

Key:
MRSE [1] = assay: High-throughput screening of 4989 compounds with human lysozyme; assay type: cell-based, Staphylococcus epidermis; conditions: for MRSE Combination / MRSE Drug only: OD600 at 24-hour; for MRSE Combination: compound 2.5 μM + 1 mg/ml lysozyme; for MRSE Drug only: compound 2.5 μM without lysozyme; for MRSE Inhibition ratio (%): compound 2.5 μM + 1 mg/ml lysozyme relative to compound only
MRSA [2] = assay: as above; assay type: cell-based, Staphylococcus aureus; conditions: for MRSA Combination / MRSA Drug only: OD600 at 24-hour; for MRSA Combination: compound 2.5 μM + 1 mg/ml lysozyme; for MRSA Drug only: compound 2.5 μM without lysozyme; for MRSA Inhibition ratio (%): compound 2.5 μM + 1 mg/ml lysozyme relative to compound only
Description: 1) High-throughput screening. […] Specifically, these compounds were added into bacterial suspensions (1×10^6 CFU/ml) in the […] microliter plate, in which each well contained 50 μl of lysogeny broth (LB) medium with or without 1 mg/ml lysozyme. LB medium in the absence of bacteria served as background group. Then, the real-time growth curves of MRSA were monitored per hour and for 24 hours. Experiments were performed with the biological replicates. Fly analyzing the absorbance 600 nm (OD600) of bacterial culture at the time point of 24-hour, the inhibition ratio (%) was calculated according to (ODcontrol−ODsample)/(ODcontrol−ODbackground)×100%. Here, the relative and apparent inhibition ratios were figured out by using the absorbance of bacterial suspension only containing compound and that without any drug treatment as ODcontrol, respectively. The relative and apparent inhibition ratios indicated the combination effect and potential toxicity of compound in combination effect. Synergy effect was defined as the relative inhibition ratio of ≥90%.

MRSA [3] = assay: High-throughput screening of 1953 FDA-approved compounds with human lysozyme; assay type: cell-based, Staphylococcus aureus; conditions: compound 25 μM + 1 mg/ml lysozyme, 24-hour
Description: (§1) 1) High-throughput screening. According to standard screening method [Zhong. […] Commun. 11, 523 (2020)], 1953 FDA-approved compounds from our drugs library at a fixed concentrations of 25 μM were screened against methicillin-resistant Staphylococcus aureus (MRSA) and Staphylococcus epidermis (a coagulase negative Staphylococci, MRSE), in combination with human lysozyme. Specifically, these compounds were added into bacterial suspensions (1×10^5 CFU/ml, in LB medium) in the absence or presence of 1 mg/ml lysozyme. LB medium without bacteria served as background group. Then, the real-time growth curvet of MRSA were monitored per hour and for 24 hours. Absorbance at 600 am (OD600) of bacterial culture at the time point of 24-hour was also measured. The inhibition ratio (%) was calculated as (ODcontrol−ODsample)/(ODcontrol−ODbackground)×100%. […] Herein, the relative and apparent inhibition ratios indicated the combination effect and potential toxicity of compound, respectively. Synergy effect was defined as the relative inhibition ratio of ≥90%. All assays were performed in triplicate.

MRSE [4] = assay: as above; assay type: cell-based, Staphylococcus epidermis; conditions: compound 25 μM + 1 mg/ml lysozyme, 24-hour
Description: as §1

CC(=O)c1c(O)cc(O)c(C(C)=O)c1O [2,4-Diacetylphloroglucinol]
MRSE Combination (MRSE [1]): 0.0686
MRSE Drug only (MRSE [1]): 0.09
MRSE Inhibition ratio (%) (MRSE [1]): 54.87%
MRSA Combination (MRSA [2]): 0.0588
MRSA Drug only (MRSA [2]): 0.2097
MRSA Inhibition ratio (%) (MRSA [2]): 95.09%

COC(=O)[C@]12CCC(C)(C)C[C@H]1[C@H]1C(=O)C=C3[C@@]4(C)C=C(C#N)C(=O)C(C)(C)[C@@H]4CC[C@@]3(C)[C@]1(C)CC2 [Bardoxolone Methyl]
Growth inhibition ratio (mean ± SD, %) MRSA (MRSA [3]): 29.95 ± 40.66%
Growth inhibition ratio (mean ± SD, %) MRSE (MRSE [4]): 81.67 ± 1.61%

CC1(C)S[C@@H]2[C@H](NC(=O)Cc3ccccc3)C(=O)N2[C@H]1C(=O)O [Benzylpenicillin potassium]
Growth inhibition ratio (mean ± SD, %) MRSA (MRSA [3]): 48.39 ± 51.84%
Growth inhibition ratio (mean ± SD, %) MRSE (MRSE [4]): 3.07 ± 4.93%

CCCCCCNC(=O)n1cc(F)c(=O)[nH]c1=O [Carmofur]
Growth inhibition ratio (mean ± SD, %) MRSA (MRSA [3]): 82.5 ± 7.73%
Growth inhibition ratio (mean ± SD, %) MRSE (MRSE [4]): 78.06 ± 11.38%

CC/C=C(\C(=O)N[C@@H]1C(=O)N2C(C(=O)OCOC(=O)C(C)(C)C)=C(COC(N)=O)CS[C@H]12)c1csc(N)n1.Cl [Cefcapene Pivoxil Hydrochloride]
Growth inhibition ratio (mean ± SD, %) MRSA (MRSA [3]): 18.64 ± 7.49%
Growth inhibition ratio (mean ± SD, %) MRSE (MRSE [4]): 3.23 ± 3.04%

CO[C@@]1(NC(=O)CSCC#N)C(=O)N2C(C(=O)O)=C(CSc3nnnn3C)CS[C@@H]21 [Cefmetazole sodium]
Growth inhibition ratio (mean ± SD, %) MRSA (MRSA [3]): 58.25 ± 13.23%
Growth inhibition ratio (mean ± SD, %) MRSE (MRSE [4]): 6 ± 29.05%

CCN1CCN(C(=O)N[C@@H](C(=O)N[C@@H]2C(=O)N3C(C(=O)O)=C(CSc4nnnn4C)CS[C@H]23)c2ccc(O)cc2)C(=O)C1=O [Cefoperazone]
Growth inhibition ratio (mean ± SD, %) MRSA (MRSA [3]): 71.74 ± 5.27%
Growth inhibition ratio (mean ± SD, %) MRSE (MRSE [4]): −16.2 ± 8.93%

CO/N=C(\C(=O)N[C@@H]1C(=O)N2C(C(=O)O)=C(Cn3ccc(=N)n3CCO)CS[C@H]12)c1csc(N)n1.O=S(=O)(O)O [Cefoselis Sulfate]
Growth inhibition ratio (mean ± SD, %) MRSA (MRSA [3]): 40.55 ± 6.2%
Growth inhibition ratio (mean ± SD, %) MRSE (MRSE [4]): 51.56 ± 10.39%

CC1=C(C(=O)O)N2C(=O)[C@@H](NC(=O)[C@H](N)C3=CCC=CC3)[C@H]2SC1 [Cefradine]
Growth inhibition ratio (mean ± SD, %) MRSA (MRSA [3]): 48.66 ± 13.26%
Growth inhibition ratio (mean ± SD, %) MRSE (MRSE [4]): 33.52 ± 23.07%

CC(C)(O/N=C(\C(=O)N[C@@H]1C(=O)N2C(C(=O)[O-])=C(C[n+]3ccccc3)CS[C@H]12)c1csc(N)n1)C(=O)O [Ceftazidime Pentahydrate]
Growth inhibition ratio (mean ± SD, %) MRSA (MRSA [3]): 45.07 ± 6.86%
Growth inhibition ratio (mean ± SD, %) MRSE (MRSE [4]): 34.84 ± 3.23%

CO/N=C(\C(=O)N[C@@H]1C(=O)N2C(C(=O)O)=C(CSc3nc(=O)c(=O)[nH]n3C)CS[C@H]12)c1csc(N)n1 [Ceftriaxone Sodium]
Growth inhibition ratio (mean ± SD, %) MRSA (MRSA [3]): 8.83 ± 1.45%
Growth inhibition ratio (mean ± SD, %) MRSE (MRSE [4]): 34.56 ± 35.01%

[H]/N=C(\N/C(=N/[H])NCCCCCCNC(=N)NC(=N)Nc1ccc(Cl)cc1)Nc1ccc(Cl)cc1 [Chlorhexidine 2HCl]
Growth inhibition ratio (mean ± SD, %) MRSA (MRSA [3]): 94.16 ± 0.25%
Growth inhibition ratio (mean ± SD, %) MRSE (MRSE [4]): 12.3 ± 18.27%

CNC[C@H](O)[C@@H](O)[C@H](O)[C@H](O)CO.Nc1nc(-n2cc(C(=O)O)c(=O)c3cc(F)c(N4CC(O)C4)c(Cl)c32)c(F)cc1F [Delafloxacin (meglumine)]
MRSE Combination (MRSE [1]): 0.0639
MRSE Drug only (MRSE [1]): 0.1374
MRSA Combination (MRSA [2]): 0.0629
MRSA Drug only (MRSA [2]): 0.177
MRSA Inhibition ratio (%) (MRSA [2]): 90.56%

C[C@@H](O)[C@H]1C(=O)N2C(C(=O)O)=C(S[C@@H]3CN[C@H](CNS(N)(=O)=O)C3)[C@H](C)[C@H]12 [Doripenem Hydrate]
Growth inhibition ratio (mean ± SD, %) MRSA (MRSA [3]): 82.4 ± 5.63%
Growth inhibition ratio (mean ± SD, %) MRSE (MRSE [4]): 11.18 ± 6.16%

CCOC(=O)c1ccc(O)c(O)c1 [Ethyl 3,4-dihydroxybenzoate]
MRSE Combination (MRSE [1]): 0.0703
MRSE Drug only (MRSE [1]): 0.6328
MRSE Inhibition ratio (%) (MRSE [1]): 96.68%
MRSA Combination (MRSA [2]): 0.064
MRSA Drug only (MRSA [2]): 0.5805
MRSA Inhibition ratio (%) (MRSA [2]): 97.54%

N#C/C(=C1/SC[C@@H](c2ccc(Cl)cc2Cl)S1)n1ccnc1 [Luliconazole]
Growth inhibition ratio (mean ± SD, %) MRSA (MRSA [3]): −9.69 ± 5.58%
Growth inhibition ratio (mean ± SD, %) MRSE (MRSE [4]): 22.39 ± 10.76%

C[C@@H](O)[C@H]1C(=O)N2C(C(=O)O)=C(S[C@@H]3CN[C@H](C(=O)N(C)C)C3)[C@H](C)[C@H]12 [Meropenem Trihydrate]
Growth inhibition ratio (mean ± SD, %) MRSA (MRSA [3]): 48.19 ± 11.14%
Growth inhibition ratio (mean ± SD, %) MRSE (MRSE [4]): 20.45 ± 65.79%

CC1(C)S[C@@H]2[C@H](NC(=O)[C@H](NC(=O)N3CCN(S(C)(=O)=O)C3=O)c3ccccc3)C(=O)N2[C@H]1C(=O)O [Mezlocillin Sodium]
Growth inhibition ratio (mean ± SD, %) MRSA (MRSA [3]): 90.46 ± 1.59%
Growth inhibition ratio (mean ± SD, %) MRSE (MRSE [4]): 6.93 ± 8.22%

CO[C@@]12[C@H](COC(N)=O)C3=C(C(=O)C(C)=C(N)C3=O)N1C[C@@H]1N[C@@H]12 [Mitomycin C]
Growth inhibition ratio (mean ± SD, %) MRSA (MRSA [3]): 66.02 ± 45.26%
Growth inhibition ratio (mean ± SD, %) MRSE (MRSE [4]): 39.12 ± 43.57%

CCC(=O)c1ccc(O)cc1 [Paroxypropione]
MRSE Combination (MRSE [1]): 0.0445
MRSE Drug only (MRSE [1]): 0.5254
MRSE Inhibition ratio (%) (MRSE [1]): 101.37%
MRSA Combination (MRSA [2]): 0.0655
MRSA Drug only (MRSA [2]): 0.3624
MRSA Inhibition ratio (%) (MRSA [2]): 95.34%

CO[C@H]1/C=C/O[C@@]2(C)Oc3c(C)c(O)c4c(c3C2=O)C(=O)C=C(NC(=O)/C(C)=C\C=C\[C@H](C)[C@H](O)[C@@H](C)[C@@H](O)[C@@H](C)[C@H](OC(C)=O)[C@@H]1C)C4=O [Rifamycin S]
MRSE Combination (MRSE [1]): 0.0967
MRSE Drug only (MRSE [1]): 0.5935
MRSE Inhibition ratio (%) (MRSE [1]): 91.58%
MRSA Combination (MRSA [2]): 0.074
MRSA Drug only (MRSA [2]): 0.1545
MRSA Inhibition ratio (%) (MRSA [2]): 77.78%

C#Cc1cccc(Nc2nc3ccccc3nc2Nc2cccc(C#C)c2)c1.Cl.Cl [TD52 (dihydrochloride)]
MRSE Combination (MRSE [1]): 0.1057
MRSE Drug only (MRSE [1]): 0.402
MRSA Combination (MRSA [2]): 0.0926
MRSA Drug only (MRSA [2]): 0.6512
MRSA Inhibition ratio (%) (MRSA [2]): 93.07%

SCP1-IN-1
MRSE Combination (MRSE [1]): 0.0698
MRSE Drug only (MRSE [1]): 0.1091
MRSE Inhibition ratio (%) (MRSE [1]): 67.64%
MRSA Combination (MRSA [2]): 0.0766
MRSA Drug only (MRSA [2]): 0.1762
MRSA Inhibition ratio (%) (MRSA [2]): 79.55%

Sertaconazole (nitrate)
MRSE Combination (MRSE [1]): 0.079
MRSE Drug only (MRSE [1]): 0.4977
MRSE Inhibition ratio (%) (MRSE [1]): 93.73%
MRSA Combination (MRSA [2]): 0.2603
MRSA Drug only (MRSA [2]): 0.593
MRSA Inhibition ratio (%) (MRSA [2]): 61.38%
